Experimental data reported in US20250026761A1, “DIAZABICYCLOOCTANE DERIVATIVES USEFUL AS MATRIX METALLOPROTEINASE INHIBITORS” (VASA THERAPEUTICS SPÓLKA Z OGRANICZONA ODPOWIEDZIALNOSCIA, priority 2021, published 2025).

Legend:
Format in all cases: biochemical
MMP2 = target: T1, MMP2 (Homo sapiens, UniProt P08253); test: MMP-2 colorimetric inhibition assay (Enzo kit); settings: colorimetric thiopeptide substrate, absorbance 415 nm; read-out: MMP2 IC50 class
T1 construct: purchased Enzo Life Sciences, Inc. BML-AK408
Description: (§1) The inhibitory activities of the compounds of the invention were assessed in 96-well microplate format using MMP1, MMP2, MMP9 and MMP13 colorimetric assay kits and TACE fluorometric assay kit from Enzo Life Sciences, Inc. The inhibitory effect of the compounds of the invention on ADAM10 activity were evaluated in 96-well microplate format using fluorometric assay from AnaSpec, Inc.
(§2) The MMP-2 Colorimetric Drug Discovery Kit (catalog #BML-AK408) is a complete assay system designed to screen MMP-2 inhibitors using a thiopeptide as a chromogenic substrate (Ac-PLG-[2-mercapto-4-methylpentanoyl]-LG-OC2H5). The MMP cleavage site peptide bond is replaced by a thioester bond in the thiopeptide. Hydrolysis of this bond by an MMP produces a sulfhydryl group, which reacts with DTNB [5,5′-dithiobis(2-nitrobenzoic acid), Ellman's reagent] to form 2-nitro-5-thiobenzoic acid, that can be detected spectrophotometrically.
(§3) The inhibitory activities of the compounds of the invention against MMP1, MMP2, MMP9 and MMP13 were tested according to the manufacturer's assay protocols and the absorbance at 415 nm was monitored using the Tecan Infinite® 200 Pro F Nano^+ microplate reader.
(§4) The normalized values were analyzed using GraphPadPrism 9 for Windows (GraphPad Software, San Diego, CA, USA) software by plotting inhibition curves and determining the IC50 values.
(§5) The calculated IC50 values were divided into the following classes: • A: <50 nM; B: 50-1000 nM; C: >1000-10,000 nM; D: >10,000 nM

MMP13 = target: T2, MMP13 (Homo sapiens, UniProt P45452); test: MMP-13 colorimetric inhibition assay (Enzo kit); settings: colorimetric thiopeptide substrate, absorbance 415 nm; read-out: MMP13 IC50 class
T2 construct: purchased Enzo Life Sciences, Inc. BML-AK412
Description: as §1
as §2, with “MMP-13” for “MMP-2”, “#BML-AK412)” for “#BML-AK408)”, “screen” for “screen MMP-2”, “inhibitors of matrix metalloproteinase-13” for “inhibitors”
as §3, §4, §5

MMP9 = target: T3, MMP9 (Homo sapiens, UniProt P14780); test: MMP-9 colorimetric inhibition assay (Enzo kit); settings: colorimetric thiopeptide substrate, absorbance 415 nm; read-out: MMP9 IC50 class
T3 construct: purchased Enzo Life Sciences, Inc. BML-AK410
Description: as §1
as §2, with “MMP-9” for “MMP-2”, “#BML-AK410)” for “#BML-AK408)”, “screen” for “screen MMP-2”, “inhibitors of matrix metalloproteinase-9” for “inhibitors”
as §3, §4, §5

T1 sequence (P08253 110-452 limits assumed): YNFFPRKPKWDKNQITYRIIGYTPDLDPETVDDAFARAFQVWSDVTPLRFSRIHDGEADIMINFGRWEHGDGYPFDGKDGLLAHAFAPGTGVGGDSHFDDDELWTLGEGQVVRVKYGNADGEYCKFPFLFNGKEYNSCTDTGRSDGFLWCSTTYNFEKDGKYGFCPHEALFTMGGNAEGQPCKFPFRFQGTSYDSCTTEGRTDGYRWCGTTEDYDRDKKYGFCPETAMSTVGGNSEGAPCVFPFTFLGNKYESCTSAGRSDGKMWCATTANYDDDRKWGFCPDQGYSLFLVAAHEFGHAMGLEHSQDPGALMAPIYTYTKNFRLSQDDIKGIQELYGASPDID
T3 sequence (P14780 94-707): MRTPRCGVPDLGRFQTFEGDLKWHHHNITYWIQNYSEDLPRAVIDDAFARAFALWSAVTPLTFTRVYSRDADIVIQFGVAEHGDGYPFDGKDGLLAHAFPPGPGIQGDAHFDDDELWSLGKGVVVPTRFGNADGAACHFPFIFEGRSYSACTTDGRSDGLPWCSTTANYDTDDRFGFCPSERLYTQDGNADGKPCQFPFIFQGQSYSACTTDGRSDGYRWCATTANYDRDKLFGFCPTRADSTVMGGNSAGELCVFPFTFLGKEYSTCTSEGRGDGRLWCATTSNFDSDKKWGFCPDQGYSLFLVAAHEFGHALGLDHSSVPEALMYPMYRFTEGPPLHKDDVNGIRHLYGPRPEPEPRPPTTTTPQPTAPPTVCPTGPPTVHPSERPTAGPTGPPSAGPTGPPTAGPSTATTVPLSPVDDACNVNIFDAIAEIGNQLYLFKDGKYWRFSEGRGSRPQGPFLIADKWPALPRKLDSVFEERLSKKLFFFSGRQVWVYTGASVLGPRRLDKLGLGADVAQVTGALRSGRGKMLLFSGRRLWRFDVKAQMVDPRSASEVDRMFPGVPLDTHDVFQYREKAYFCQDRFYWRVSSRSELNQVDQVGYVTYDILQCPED

Compound	IC50 (MMP2) [µM]	IC50 (MMP13) [µM]	IC50 (MMP9) [µM]
COCCOC(=O)N1CC2CCC(C(=O)NO)(C1)N2S(=O)(=O)c1cc(F)c(Oc2ccc(Cl)cc2)c(F)c1 (centres unmarked) [Example 1, 2-methoxyethyl 8-((4-(4-chlorophenoxy)-3,5-difluorophenyl)sulfonyl)-1-(hydroxycarbamoyl)-3,8-diazabicyclo[3.2.1]octane-3-carboxylate]	0.05 to 1	–	–
O=C(Cc1ccncc1)N1CC2CCC(C(=O)NO)(C1)N2S(=O)(=O)c1cc(F)c(Oc2ccc(Cl)cc2)c(F)c1 (centres unmarked) [Example 23, 8-((4-(4-chlorophenoxy)-3,5-difluorophenyl)sulfonyl)-N-hydroxy-3-(2-(pyridin-4-yl)acetyl)-3,8-diazabicyclo[3.2.1]octane-1-carboxamide]	0.05 to 1	–	0.05 to 1
O=C(CN1CCCCC1)N1CC2CCC(C(=O)NO)(C1)N2S(=O)(=O)c1cc(F)c(Oc2ccc(Cl)cc2)c(F)c1 (centres unmarked) [Example 7, 8-((4-(4-chlorophenoxy)-3,5-difluorophenyl)sulfonyl)-N-hydroxy-3-(2-(piperidin-1-yl)acetyl)-3,8-diazabicyclo[3.2.1]octane-1-carboxamide]	0.05 to 1	1 to 10	1 to 10
COCCOC(=O)N1CC2CCC(C(=O)NO)(C1)N2S(=O)(=O)c1cc(F)c(Oc2ccc(F)cc2)c(F)c1 (centres unmarked) [Example 2, 2-Methoxyethyl 8-((3,5-difluoro-4-(4-fluorophenoxy)phenyl)sulfonyl)-1-(hydroxy-carbamoyl)-3,8-diazabicyclo[3.2.1]octane-3-carboxylate]	0.05 to 1	1 to 10	0.05 to 1
COCCOC(=O)N1C[C@@H]2CC[C@](C(=O)NO)(C1)N2S(=O)(=O)c1ccc(Oc2ccc(F)cc2)c(F)c1 [Example 31, 2-methoxyethyl (1R,5S)-8-((3-fluoro-4-(4-fluorophenoxy)phenyl)sulfonyl)-1-(hydroxycarbamoyl)-3,8-diazabicyclo[3.2.1]octane-3-carboxylate]	< 0.05	–	0.05 to 1
O=C(N1CCOCC1)N1CC2CCC(C(=O)NO)(C1)N2S(=O)(=O)c1cc(F)c(Oc2ccc(Cl)cc2)c(F)c1 (centres unmarked) [Example 24, 8-((4-(4-chlorophenoxy)-3,5-difluorophenyl)sulfonyl)-N-hydroxy-3-(morpholine-4-carbonyl)-3,8-diazabicyclo[3.2.1]octane-1-carboxamide]	0.05 to 1	–	0.05 to 1
O=C(CN1CCOCC1)N1CC2CCC(C(=O)NO)(C1)N2S(=O)(=O)c1cc(F)c(Oc2ccc(Cl)cc2)c(F)c1 (centres unmarked) [Example 4, 8-((4-(4-chlorophenoxy)-3,5-difluorophenyl)sulfonyl)-N-hydroxy-3-(2-morpholinoacetyl)-3,8-diazabicyclo[3.2.1]octane-1-carboxamide]	0.05 to 1	1 to 10	0.05 to 1

The remaining lines, values ahead:

IC50 (MMP2) [µM]	IC50 (MMP13) [µM]	IC50 (MMP9) [µM]	Compound
> 10	> 10	> 10	COCCOC(=O)N1CC2CCC(C(=O)NO)(C1)N2C(=O)c1cc(F)c(Oc2ccc(Cl)cc2)c(F)c1 (centres unmarked) [Example 34, 2-methoxyethyl 8-(4-(4-chlorophenoxy)-3,5-difluorobenzoyl)-1-(hydroxycarbamoyl)-3,8-diazabicyclo[3.2.1]octane-3-carboxylate]
0.05 to 1	–	0.05 to 1	COCCOC(=O)N1C[C@H]2CC[C@@](C(=O)NO)(C1)N2S(=O)(=O)c1ccc(Oc2ccc(F)cc2)c(F)c1 [Example 30, 2-methoxyethyl (1S,5R)-8-((3-fluoro-4-(4-fluorophenoxy)phenyl)sulfonyl)-1-(hydroxycarbamoyl)-3,8-diazabicyclo[3.2.1]octane-3-carboxylate]
0.05 to 1	–	1 to 10	O=C(c1ccncc1)N1CC2CCC(C(=O)NO)(C1)N2S(=O)(=O)c1cc(F)c(Oc2ccc(Cl)cc2)c(F)c1 (centres unmarked) [Example 3, 8-((4-(4-chlorophenoxy)-3,5-difluorophenyl)sulfonyl)-N-hydroxy-3-isonicotinoyl-3,8-diazabicyclo[3.2.1]octane-1-carboxamide]
0.05 to 1	1 to 10	1 to 10	COCCOC(=O)N1CC2CCC(C(=O)NO)(C1)N2S(=O)(=O)c1ccc(-c2cccc(F)c2)nc1 (centres unmarked) [Example 9, 2-methoxyethyl 8-((6-(3-fluorophenyl)pyridin-3-yl)sulfonyl)-1-(hydroxycarbamoyl)-3,8-diazabicyclo[3.2.1]octane-3-carboxylate]
0.05 to 1	0.05 to 1	0.05 to 1	COCCOC(=O)N1CC2CCC(C(=O)NO)(C1)N2S(=O)(=O)c1ccc(Oc2ccc(C#N)cc2)nc1 (centres unmarked) [Example 18, 2-methoxyethyl 8-((6-(4-cyanophenoxy)pyridin-3-yl)sulfonyl)-1-(hydroxycarbamoyl)-3,8-diazabicyclo[3.2.1]octane-3-carboxylate]
0.05 to 1	–	1 to 10	O=C(NO)C12CCC(CNC1)N2S(=O)(=O)c1cc(F)c(Oc2ccc(Cl)cc2)c(F)c1 (centres unmarked) [Example 32, 8-((4-(4-chlorophenoxy)-3,5-difluorophenyl)sulfonyl)-N-hydroxy-3,8-diazabicyclo[3.2.1]octane-1-carboxamide]
> 10	1 to 10	1 to 10	COCCOC(=O)N1CC2CCC(C(=O)NO)(C1)N2S(=O)(=O)c1ccc(OCc2ccc(F)cc2Cl)cc1 (centres unmarked) [Example 15, 2-methoxyethyl 8-((4-((2-chloro-4-fluorobenzyl)oxy)phenyl)sulfonyl)-1-(hydroxycarbamoyl)-3,8-diazabicyclo[3.2.1]octane-3-carboxylate]
0.05 to 1	0.05 to 1	0.05 to 1	COCCOC(=O)N1CC2CCC(C(=O)NO)(C1)N2S(=O)(=O)c1ccc(NC(=O)c2ccc(OC)cc2)cc1 (centres unmarked) [Example 17, 2-methoxyethyl 1-(hydroxycarbamoyl)-8-((4-(4-methoxybenzamido)phenyl)sulfonyl)-3,8-diazabicyclo[3.2.1]octane-3-carboxylate]
0.05 to 1	–	0.05 to 1	O=C(N1CCCCC1)N1CC2CCC(C(=O)NO)(C1)N2S(=O)(=O)c1cc(F)c(Oc2ccc(Cl)cc2)c(F)c1 (centres unmarked) [Example 6, 8-((4-(4-chlorophenoxy)-3,5-difluorophenyl)sulfonyl)-N-hydroxy-3-(piperidine-1-carbonyl)-3,8-diazabicyclo[3.2.1]octane-1-carboxamide]
0.05 to 1	–	0.05 to 1	O=C(CCN1CCOCC1)N1CC2CCC(C(=O)NO)(C1)N2S(=O)(=O)c1cc(F)c(Oc2ccc(Cl)cc2)c(F)c1 (centres unmarked) [Example 25, 8-((4-(4-chlorophenoxy)-3,5-difluorophenyl)sulfonyl)-N-hydroxy-3-(3-morpholinopropanoyl)-3,8-diazabicyclo[3.2.1]octane-1-carboxamide]
